Test results from PubChem BioAssay (NCI).
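Tested at 5 concentrations; 48 h exposure; 96-well plates; endpoints linearly interpolated, else capped at highest concentration. The concentration for 50% growth inhibition is given as GI50. TGI: total growth inhibition.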

Assays:
Experiment in all cases: DTP human tumour cell line panel, 48 h
786-0 renal = system: 786-0 renal
A498 renal = system: A498 renal
A549 NSCLC = system: A549 NSCLC
ACHN renal = system: ACHN renal
CAKI-1 renal = system: CAKI-1 renal
CCRF-CEM leukemia = system: CCRF-CEM leukemia
COLO 205 colon = system: COLO 205 colon
DU-145 prostate = system: DU-145 prostate
EKVX NSCLC = system: EKVX NSCLC
HCC-2998 colon = system: HCC-2998 colon
HCT-116 colon = system: HCT-116 colon
HCT-15 colon = system: HCT-15 colon
HL-60(TB) leukemia = system: HL-60(TB) leukemia
HOP-62 NSCLC = system: HOP-62 NSCLC
HOP-92 NSCLC = system: HOP-92 NSCLC
HS 578T breast = system: HS 578T breast
HT29 colon = system: HT29 colon
IGROV1 ovarian = system: IGROV1 ovarian
KM12 colon = system: KM12 colon
LOX IMVI melanoma = system: LOX IMVI melanoma
M14 melanoma = system: M14 melanoma
MALME-3M melanoma = system: MALME-3M melanoma
MCF7 breast = system: MCF7 breast
MDA-MB-435 = system: MDA-MB-435
MDA-MB-468 breast = system: MDA-MB-468 breast
MOLT-4 leukemia = system: MOLT-4 leukemia
NCI-H226 lung = system: NCI-H226 lung
NCI-H23 lung = system: NCI-H23 lung
NCI-H460 lung = system: NCI-H460 lung
NCI-H522 lung = system: NCI-H522 lung
NCI/ADR-RES ovarian = system: NCI/ADR-RES ovarian
OVCAR-3 ovarian = system: OVCAR-3 ovarian
OVCAR-4 ovarian = system: OVCAR-4 ovarian
OVCAR-5 ovarian = system: OVCAR-5 ovarian
OVCAR-8 ovarian = system: OVCAR-8 ovarian
PC-3 prostate = system: PC-3 prostate
RXF 393 renal = system: RXF 393 renal
SF-268 CNS = system: SF-268 CNS
SK-MEL-2 melanoma = system: SK-MEL-2 melanoma
SK-MEL-28 melanoma = system: SK-MEL-28 melanoma
SK-MEL-5 melanoma = system: SK-MEL-5 melanoma
SK-OV-3 ovarian = system: SK-OV-3 ovarian
SN12C renal = system: SN12C renal
SNB-19 CNS = system: SNB-19 CNS
SNB-75 CNS = system: SNB-75 CNS
SR leukemia = system: SR leukemia
SW-620 colon = system: SW-620 colon
T-47D breast = system: T-47D breast
TK-10 renal = system: TK-10 renal
U251 CNS = system: U251 CNS
UACC-257 melanoma = system: UACC-257 melanoma
UACC-62 melanoma = system: UACC-62 melanoma
UO-31 renal = system: UO-31 renal

O=C(OCCOCCO)N(c1cccc(Br)c1)c1nc(SCCN2CCOCC2)nc2c1cnn2CC(Cl)c1ccc(Br)cc1 (stereo unspecified)
GI50 (786-0 renal): 2510 nM | TGI (786-0 renal): > 100 µM | GI50 (A498 renal): > 100 µM | TGI (A498 renal): > 100 µM | GI50 (A549 NSCLC): 5.04 µM | TGI (A549 NSCLC): > 100 µM | GI50 (ACHN renal): 3.9 µM | TGI (ACHN renal): > 100 µM | GI50 (CAKI-1 renal): 4.38 µM | TGI (CAKI-1 renal): > 100 µM | GI50 (CCRF-CEM leukemia): 2890 nM | TGI (CCRF-CEM leukemia): 12.1 µM | GI50 (COLO 205 colon): 1990 nM | TGI (COLO 205 colon): 4.43 µM | GI50 (DU-145 prostate): 9.88 µM | TGI (DU-145 prostate): > 100 µM | GI50 (EKVX NSCLC): 5.55 µM | TGI (EKVX NSCLC): > 100 µM | GI50 (HCC-2998 colon): 3.84 µM | TGI (HCC-2998 colon): > 100 µM | GI50 (HCT-116 colon): 2620 nM | TGI (HCT-116 colon): > 100 µM | GI50 (HCT-15 colon): 2840 nM | TGI (HCT-15 colon): 10.1 µM | GI50 (HL-60(TB) leukemia): 2360 nM | TGI (HL-60(TB) leukemia): 6.25 µM | GI50 (HOP-62 NSCLC): 4.41 µM | TGI (HOP-62 NSCLC): > 100 µM | GI50 (HOP-92 NSCLC): 7.62 µM | TGI (HOP-92 NSCLC): > 100 µM | GI50 (HS 578T breast): 3.59 µM | TGI (HS 578T breast): > 100 µM | GI50 (HT29 colon): 2730 nM | TGI (HT29 colon): > 100 µM | GI50 (IGROV1 ovarian): 8.25 µM | TGI (IGROV1 ovarian): > 100 µM | GI50 (KM12 colon): 3.88 µM | TGI (KM12 colon): > 100 µM | GI50 (LOX IMVI melanoma): 1720 nM | TGI (LOX IMVI melanoma): 3.21 µM | GI50 (M14 melanoma): 3.67 µM | TGI (M14 melanoma): > 100 µM | GI50 (MALME-3M melanoma): 3.17 µM | TGI (MALME-3M melanoma): 17.8 µM | GI50 (MCF7 breast): 3.15 µM | TGI (MCF7 breast): > 100 µM | GI50 (MDA-MB-435): 3.83 µM | TGI (MDA-MB-435): > 100 µM | GI50 (MDA-MB-468 breast): 2470 nM | TGI (MDA-MB-468 breast): 7.63 µM | GI50 (MOLT-4 leukemia): 2310 nM | TGI (MOLT-4 leukemia): 6.51 µM | GI50 (NCI-H226 lung): 5.63 µM | TGI (NCI-H226 lung): > 100 µM | GI50 (NCI-H23 lung): 3.27 µM | TGI (NCI-H23 lung): 15 µM | GI50 (NCI-H460 lung): 3.77 µM | TGI (NCI-H460 lung): > 100 µM | GI50 (NCI-H522 lung): 3.15 µM | TGI (NCI-H522 lung): 13.1 µM | GI50 (NCI/ADR-RES ovarian): 3.52 µM | TGI (NCI/ADR-RES ovarian): > 100 µM | GI50 (OVCAR-3 ovarian): 5.54 µM | TGI (OVCAR-3 ovarian): > 100 µM | GI50 (OVCAR-4 ovarian): 3.05 µM | TGI (OVCAR-4 ovarian): > 100 µM | GI50 (OVCAR-5 ovarian): 5.15 µM | TGI (OVCAR-5 ovarian): > 100 µM | GI50 (OVCAR-8 ovarian): 6.93 µM | TGI (OVCAR-8 ovarian): > 100 µM | GI50 (PC-3 prostate): 3.28 µM | TGI (PC-3 prostate): > 100 µM | GI50 (RXF 393 renal): 1780 nM | TGI (RXF 393 renal): 5.05 µM | GI50 (SF-268 CNS): 4.82 µM | TGI (SF-268 CNS): > 100 µM | GI50 (SK-MEL-2 melanoma): 6.68 µM | TGI (SK-MEL-2 melanoma): 22.1 µM | GI50 (SK-MEL-28 melanoma): 3.35 µM | TGI (SK-MEL-28 melanoma): 18 µM | GI50 (SK-MEL-5 melanoma): 10.1 µM | TGI (SK-MEL-5 melanoma): 70.7 µM | GI50 (SK-OV-3 ovarian): 5.21 µM | TGI (SK-OV-3 ovarian): > 100 µM | GI50 (SN12C renal): 4.91 µM | TGI (SN12C renal): > 100 µM | GI50 (SNB-19 CNS): 9.17 µM | TGI (SNB-19 CNS): 24.8 µM | GI50 (SNB-75 CNS): 3.34 µM | TGI (SNB-75 CNS): > 100 µM | GI50 (SR leukemia): 2000 nM | TGI (SR leukemia): > 100 µM | GI50 (SW-620 colon): 3.71 µM | TGI (SW-620 colon): > 100 µM | GI50 (T-47D breast): 5 µM | TGI (T-47D breast): > 100 µM | GI50 (TK-10 renal): 93.4 µM | TGI (TK-10 renal): > 100 µM | GI50 (U251 CNS): 6.39 µM | TGI (U251 CNS): > 100 µM | GI50 (UACC-257 melanoma): 10.5 µM | TGI (UACC-257 melanoma): > 100 µM | GI50 (UACC-62 melanoma): 3.33 µM | TGI (UACC-62 melanoma): 12.4 µM | GI50 (UO-31 renal): 4.57 µM | TGI (UO-31 renal): > 100 µM
